According to the NIST ThermoML archive (doi:10.1016/j.jct.2011.07.006):
Numbers after ± are expanded uncertainties.

Experiment: xn = mol fraction of the nth substance listed
Details: Gas, Buoyancy - hydrostatic balance with magnetic suspension - one sinker

N#N [nitrogen] + O=C=O
mass density [kg/m3]
Details | x2 = 0.1001 | x2 = 0.1505
250.04 K, 12011 kPa | 188.824 ± 0.51 | –
250.04 K, 14015 kPa | 220.196 ± 0.63 | –
250.04 K, 16024 kPa | 250.228 ± 0.74 | –
250.04 K, 18041 kPa | 278.626 ± 0.83 | –
250.04 K, 19866 kPa | 302.682 ± 0.88 | –
250.05 K, 1985.1 kPa | 29 ± 0.043 | –
250.05 K, 3997.3 kPa | 59.733 ± 0.1 | –
250.05 K, 5998.8 kPa | 91.41 ± 0.18 | –
250.05 K, 8000 kPa | 123.81 ± 0.27 | –
250.05 K, 10007 kPa | 156.529 ± 0.39 | –
250.06 K, 1944.1 kPa | – | 29.337 ± 0.044
250.06 K, 3982.7 kPa | – | 61.879 ± 0.14
250.06 K, 5984.1 kPa | – | 95.441 ± 0.2
250.06 K, 7996.2 kPa | – | 130.387 ± 0.29
250.06 K, 16016 kPa | – | 267.875 ± 0.69
250.06 K, 18019 kPa | – | 298.361 ± 0.78
250.06 K, 19997 kPa | – | 326.225 ± 0.87
250.07 K, 10003 kPa | – | 165.836 ± 0.38
250.07 K, 12006 kPa | – | 201.013 ± 0.49
250.07 K, 14014 kPa | – | 235.308 ± 0.59
275.01 K, 6002 kPa | 80.825 ± 0.13 | –
275.01 K, 7997.9 kPa | 108.505 ± 0.18 | –
275.02 K, 1988.5 kPa | – | 26.992 ± 0.079
275.02 K, 3997.1 kPa | 53.276 ± 0.083 | –
275.02 K, 4000.6 kPa | – | 55.255 ± 0.11
275.02 K, 5998 kPa | – | 84.088 ± 0.17
275.02 K, 7994.3 kPa | – | 113.405 ± 0.25
275.02 K, 10004 kPa | 136.29 ± 0.24 | –
275.02 K, 12009 kPa | 163.678 ± 0.31 | –
275.02 K, 14013 kPa | 190.433 ± 0.38 | –
275.02 K, 16022 kPa | 216.33 ± 0.45 | –
275.02 K, 18057 kPa | 241.448 ± 0.51 | –
275.02 K, 19841 kPa | 262.442 ± 0.4 | –
275.03 K, 9995.5 kPa | – | 142.952 ± 0.33
275.03 K, 12000 kPa | – | 172.315 ± 0.42
275.03 K, 14001 kPa | – | 201.02 ± 0.51
275.03 K, 15981 kPa | – | 228.492 ± 0.6
275.03 K, 17994 kPa | – | 255.193 ± 0.67
275.03 K, 19983 kPa | – | 280.214 ± 0.8
299.96 K, 17994 kPa | – | 224.784 ± 0.5
299.96 K, 19165 kPa | 226.098 ± 0.5 | –
299.96 K, 19977 kPa | – | 247.119 ± 0.54
299.97 K, 1992.1 kPa | – | 24.615 ± 0.039
299.97 K, 1997.9 kPa | 23.945 ± 0.024 | –
299.97 K, 3982.3 kPa | – | 49.692 ± 0.094
299.97 K, 3996.5 kPa | 48.22 ± 0.077 | –
299.97 K, 5996.4 kPa | 72.692 ± 0.11 | –
299.97 K, 5999.2 kPa | – | 75.467 ± 0.14
299.97 K, 7999.7 kPa | 97.214 ± 0.15 | –
299.97 K, 8007.8 kPa | – | 101.3 ± 0.19
299.97 K, 10002 kPa | 121.553 ± 0.2 | –
299.97 K, 10003 kPa | – | 126.921 ± 0.25
299.97 K, 12006 kPa | 145.55 ± 0.25 | –
299.97 K, 12008 kPa | – | 152.379 ± 0.32
299.97 K, 13991 kPa | – | 177.09 ± 0.38
299.97 K, 14010 kPa | 169.025 ± 0.3 | –
299.97 K, 15969 kPa | – | 201.068 ± 0.44
299.97 K, 16014 kPa | 191.829 ± 0.36 | –
299.97 K, 17869 kPa | 212.244 ± 0.41 | –
324.98 K, 1996 kPa | 21.979 ± 0.027 | –
324.98 K, 1996.1 kPa | – | 22.645 ± 0.034
324.98 K, 3995.9 kPa | – | 45.557 ± 0.081
324.98 K, 3996.2 kPa | 44.111 ± 0.071 | –
324.98 K, 5991.8 kPa | 66.201 ± 0.1 | –
324.98 K, 5996.6 kPa | – | 68.599 ± 0.12
324.98 K, 7997.6 kPa | – | 91.632 ± 0.16
324.98 K, 8019.2 kPa | 88.521 ± 0.13 | –
324.98 K, 9996.9 kPa | – | 114.495 ± 0.2
324.98 K, 9998.9 kPa | 110.087 ± 0.17 | –
324.98 K, 11991 kPa | – | 137.002 ± 0.25
324.98 K, 11999 kPa | 131.525 ± 0.21 | –
324.98 K, 13983 kPa | 152.335 ± 0.26 | –
324.98 K, 14014 kPa | – | 159.405 ± 0.3
324.98 K, 16001 kPa | 172.971 ± 0.3 | –
324.98 K, 16006 kPa | – | 180.933 ± 0.35
324.98 K, 18001 kPa | 192.79 ± 0.34 | –
324.98 K, 18016 kPa | – | 202.007 ± 0.4
324.98 K, 19621 kPa | 208.36 ± 0.34 | –
324.98 K, 19978 kPa | – | 221.898 ± 0.46
349.96 K, 1996.1 kPa | 20.34 ± 0.025 | –
349.96 K, 3996.6 kPa | 40.709 ± 0.065 | –
349.96 K, 5996.7 kPa | 60.978 ± 0.091 | –
349.97 K, 1995.9 kPa | – | 20.947 ± 0.031
349.97 K, 3995.3 kPa | – | 41.993 ± 0.072
349.97 K, 5996.9 kPa | – | 63.049 ± 0.1
349.97 K, 7995.4 kPa | – | 83.959 ± 0.14
349.97 K, 7995.8 kPa | 81.051 ± 0.12 | –
349.97 K, 9997.5 kPa | 100.892 ± 0.15 | –
349.97 K, 9999.5 kPa | – | 104.724 ± 0.17
349.97 K, 11998 kPa | 120.373 ± 0.19 | 125.127 ± 0.21
349.97 K, 13995 kPa | 139.425 ± 0.22 | –
349.97 K, 14004 kPa | – | 145.221 ± 0.25
349.97 K, 16000 kPa | 158.084 ± 0.26 | –
349.97 K, 16008 kPa | – | 164.842 ± 0.29
349.97 K, 17994 kPa | 176.127 ± 0.29 | –
349.97 K, 18008 kPa | – | 183.902 ± 0.33
349.97 K, 19378 kPa | 188.339 ± 0.23 | –
349.97 K, 19983 kPa | – | 202.168 ± 0.37
374.95 K, 1963.6 kPa | – | 19.172 ± 0.028
374.95 K, 3953.7 kPa | – | 38.571 ± 0.065
374.95 K, 5995.6 kPa | – | 58.378 ± 0.09
374.95 K, 7997.3 kPa | – | 77.627 ± 0.12
374.95 K, 9986.3 kPa | – | 96.527 ± 0.15
374.95 K, 11945 kPa | – | 114.852 ± 0.18
374.96 K, 13990 kPa | – | 133.615 ± 0.22
374.96 K, 15999 kPa | – | 151.646 ± 0.25
374.96 K, 17992 kPa | – | 169.101 ± 0.29
374.96 K, 19972 kPa | – | 185.971 ± 0.28
374.97 K, 1974.6 kPa | 18.733 ± 0.023 | –
374.97 K, 3962.2 kPa | 37.494 ± 0.06 | –
374.97 K, 5994.5 kPa | 56.518 ± 0.083 | –
374.97 K, 7989.9 kPa | 74.983 ± 0.11 | –
374.97 K, 9982.5 kPa | 93.148 ± 0.14 | –
374.97 K, 11981 kPa | 111.044 ± 0.16 | –
374.97 K, 13972 kPa | 128.504 ± 0.2 | –
374.97 K, 15966 kPa | 145.587 ± 0.23 | –
374.98 K, 17960 kPa | 162.237 ± 0.25 | –
374.98 K, 18719 kPa | 168.45 ± 0.27 | –
400.02 K, 1995.3 kPa | – | 18.223 ± 0.023
400.02 K, 3995.7 kPa | – | 36.397 ± 0.056
400.02 K, 5995.4 kPa | – | 54.424 ± 0.077
400.02 K, 7991.2 kPa | – | 72.219 ± 0.1
400.02 K, 9990.8 kPa | – | 89.804 ± 0.12
400.02 K, 11986 kPa | – | 107.065 ± 0.15
400.02 K, 13988 kPa | – | 124.054 ± 0.18
400.02 K, 15977 kPa | – | 140.583 ± 0.21
400.02 K, 17818 kPa | – | 155.538 ± 0.24
400.03 K, 3994.9 kPa | 35.321 ± 0.059 | –
400.03 K, 9992.9 kPa | 86.844 ± 0.13 | –
400.04 K, 1995.9 kPa | 17.722 ± 0.023 | –
400.04 K, 5992.1 kPa | 52.72 ± 0.081 | –
400.04 K, 7980.9 kPa | 69.818 ± 0.1 | –
400.04 K, 11987 kPa | 103.403 ± 0.16 | –
400.04 K, 13992 kPa | 119.725 ± 0.19 | –
400.04 K, 15984 kPa | 135.572 ± 0.21 | –
400.04 K, 17815 kPa | 149.796 ± 0.24 | –
400.04 K, 18908 kPa | 158.136 ± 0.24 | –
